Laboratory results from paper doi:10.1101/2022.12.25.521909v1 (biorxiv, 2022).

Biological target: T1, human ABCC4 (ABCC4/MRP4) (Homo sapiens, UniProt O15439)
T1 sequence (O15439 1-1325): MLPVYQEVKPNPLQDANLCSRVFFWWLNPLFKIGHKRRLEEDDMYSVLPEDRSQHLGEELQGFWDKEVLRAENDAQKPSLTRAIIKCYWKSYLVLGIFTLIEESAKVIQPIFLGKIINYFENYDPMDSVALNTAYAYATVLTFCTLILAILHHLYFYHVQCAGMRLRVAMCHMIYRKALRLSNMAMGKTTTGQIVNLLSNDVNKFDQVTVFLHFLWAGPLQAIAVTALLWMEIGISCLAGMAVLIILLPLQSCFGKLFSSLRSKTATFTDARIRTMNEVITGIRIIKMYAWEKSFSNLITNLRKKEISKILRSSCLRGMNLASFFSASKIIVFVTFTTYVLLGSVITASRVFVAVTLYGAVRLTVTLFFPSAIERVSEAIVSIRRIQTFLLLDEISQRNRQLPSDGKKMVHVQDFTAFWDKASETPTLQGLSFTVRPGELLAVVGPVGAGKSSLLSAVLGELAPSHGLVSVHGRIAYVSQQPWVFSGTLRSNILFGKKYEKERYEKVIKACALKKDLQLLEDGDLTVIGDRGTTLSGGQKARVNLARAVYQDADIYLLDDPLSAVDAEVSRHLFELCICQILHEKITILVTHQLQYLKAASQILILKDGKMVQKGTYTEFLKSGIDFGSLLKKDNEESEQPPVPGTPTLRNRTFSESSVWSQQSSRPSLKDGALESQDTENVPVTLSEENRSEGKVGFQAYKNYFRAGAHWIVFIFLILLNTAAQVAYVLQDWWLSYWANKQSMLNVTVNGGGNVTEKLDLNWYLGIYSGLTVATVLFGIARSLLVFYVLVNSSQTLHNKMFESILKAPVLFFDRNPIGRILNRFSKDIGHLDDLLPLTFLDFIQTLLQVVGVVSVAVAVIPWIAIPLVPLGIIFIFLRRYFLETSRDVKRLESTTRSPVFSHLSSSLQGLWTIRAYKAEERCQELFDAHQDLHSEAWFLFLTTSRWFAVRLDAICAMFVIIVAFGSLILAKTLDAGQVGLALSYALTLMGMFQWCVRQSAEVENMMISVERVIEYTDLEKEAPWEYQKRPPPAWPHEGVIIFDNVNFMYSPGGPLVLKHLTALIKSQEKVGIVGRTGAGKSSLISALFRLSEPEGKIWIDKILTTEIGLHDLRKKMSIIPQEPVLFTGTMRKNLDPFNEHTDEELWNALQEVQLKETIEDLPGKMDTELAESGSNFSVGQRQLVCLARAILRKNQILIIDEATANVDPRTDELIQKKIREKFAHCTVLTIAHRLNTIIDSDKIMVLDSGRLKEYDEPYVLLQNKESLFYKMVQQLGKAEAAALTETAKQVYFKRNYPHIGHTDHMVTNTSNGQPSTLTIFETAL
Assay: inhibition of basal ATPase activity, ABCC4 in lipid nanodiscs, logistic fit
Type: biochemical

IC50: ~2100 nM
SMILES: OCCN(CCO)c1nc(N2CCCCC2)c2nc(N(CCO)CCO)nc(N3CCCCC3)c2n1 [dipyridamole]
